Measured values taken from patent publication US9920049B2 (priority 2014, dated 2018).

Tested on: HBsAg
Assay: HBsAg assay (CLIA of secreted HBsAg in HepG2.2.15 culture supernatant)
Assay type: cell-based, HBV
Conditions: Hepatitis B virus
Procedure: HepG2.2.15 cells (Acs et al. Proc Natl Acad Sci USA, 84, (1987), 4641-4), a constitutively HBV-expressing cell line were cultured in DMEM+Glutamax-I medium (Invitrogen, Carlsbad, Calif., USA), supplemented with 10% fetal bovine serum (Invitrogen) and G418 (Invitrogen) at a final concentration of 200 mg/L and maintained in 5% CO2 at 37° C.
HepG2.2.15 cells were seeded in duplicate into white, 96-well plates at 1.5×10^4 cells/well. The cells were treated with a three-fold serial dilution series of the compounds in DMSO. The final DMSO concentration in all wells was 1% and DMSO was used as no drug control.
The HBsAg chemiluminescence immunoassay (CLIA) kit (Autobio Diagnostics Co., Zhengzhou, China, Catalog number: CL0310-2) was used to measure the levels of secreted HBV antigens semi-quantitatively. For the detection 50 μL/well culture supernatant was used and HBsAg was quantified using HBsAg chemiluminescence immunoassay (CLIA) kit (Autobio Diagnostics Co., Zhengzhou, China, Catalog number: CL0310-2), 50 μl of the supernatant was transferred to the CLIA assay plate and 50 μL of enzyme conjugate reagent was added into each well. The plates were sealed and gently agitated for 1 hour at room temperature. The supernatant-enzyme-mixture was discarded and wells were washed 6 times with 300 μL of PBS. The residual liquid was removed by plating the CLIA plate right side down on absorbent tissue paper. 25 μL of substrates A and B were added to each well. Luminance was measured using a luminometer (Mithras LB 940 Multimode Microplate Reader) after 10 minutes incubation. Dose-response curves were generated and the IC50 value was extrapolated by using the E-WorkBook Suite (ID Business Solutions Ltd., Guildford, UK).
The compounds of the present invention were tested for their capacity to inhibit HBsAg as described herein.

| Compound | IC50 [µM] |
| --- | --- |
| CCC(C)NC(=O)c1cn2c(cc1=O)-c1cc(OC)c(OCc3ccccc3)cc1CC2CC (stereo not shown) [Example 9, 9-benzyloxy-6-ethyl-10-methoxy-2-oxo-N-sec-butyl-6,7-dihydrobenzo[a]quinolizine-3-carboxamide] | 5.4 |
| CCC1Cc2cc(OCCCOC)c(OC)cc2-c2cc(=O)c(C(=O)N3CCOC(C(=O)O)C3)cn21 (stereo not shown) [Example 13, 4-[6-ethyl-10-methoxy-9-(3-methoxypropoxy)-2-oxo-6,7-dihydrobenzo[a]quinolizine-3-carbonyl]morpholine-2-carboxylic Acid] | 36.6 |
| COCCCOc1cc2c(cc1OC)-c1cc(=O)c(C(=O)Nc3nnn[nH]3)cn1C(C(C)(C)C)C2 (stereo not shown) [Example 32, 6-tert-butyl-10-methoxy-9-(3-methoxypropoxy)-2-oxo-N-(1H-tetrazol-5-yl)-6,7-dihydrobenzo[a]quinolizine-3-carboxamide] | 0.38 |
| CCC1Cc2cc(OCCCOC)c(OC)cc2-c2cc(=O)c(C(=O)NCc3ccccc3)cn21 (stereo not shown) [Example 15, N-benzyl-6-ethyl-10-methoxy-9-(3-methoxypropoxy)-2-oxo-6,7-dihydrobenzo[a]quinolizine-3-carboxamide] | 26.7 |
| CCC1Cc2cc(OCCCOC)c(OC)cc2-c2cc(=O)c(CN3CCCCC3C(=O)O)cn21 (stereo not shown) [Example 22, 1-[[6-ethyl-10-methoxy-9-(3-methoxypropoxy)-2-oxo-6,7-dihydrobenzo[a]quinolizin-3-yl]methyl]piperidine-2-carboxylic Acid] | 43.2 |
| CCC1Cc2cc(OCCCOC)c(OC)cc2-c2cc(=O)c(CN3CCCC3C(=O)O)cn21 (stereo not shown) [Example 23, 1-[[6-ethyl-10-methoxy-9-(3-methoxypropoxy)-2-oxo-6,7-dihydrobenzo[a]quinolizin-3-yl]methyl]pyrrolidine-2-carboxylic Acid] | 17.3 |
| CCC1Cc2cc(OCCCOC)c(OC)cc2-c2cc(=O)c(CN3CCOCC3C(=O)O)cn21 (stereo not shown) [Example 21, 4-[[6-ethyl-10-methoxy-9-(3-methoxypropoxy)-2-oxo-6,7-dihydrobenzo[a]quinolizin-3-yl]methyl]morpholine-3-carboxylic Acid] | 19.4 |
| COCCCOc1cc2c(cc1Cl)-c1cc(=O)c(C(=O)Nc3nnn[nH]3)cn1[C@H](C(C)C)C2 [Example 38, (+)-10-chloro-6-isopropyl-9-(3-methoxypropoxy)-2-oxo-N-(1H-tetrazol-5-yl)-6,7-dihydrobenzo[a]quinolizine-3-carboxamide] | 2.3 |
| COCCCOc1cc2c(cc1Cl)-c1cc(=O)c(C(=O)Nc3nnn[nH]3)cn1C(C(C)C)C2 (stereo not shown) [Example 37, 10-chloro-6-isopropyl-9-(3-methoxypropoxy)-2-oxo-N-(1H-tetrazol-5-yl)-6,7-dihydrobenzo[a]quinolizine-3-carboxamide] | 5.9 |
| CCOc1cc2c(cc1OC)-c1cc(=O)c(C(=O)NC(C)COC)cn1C(CC)C2 (stereo not shown) [Example 17, 9-ethoxy-6-ethyl-10-methoxy-N-(2-methoxy-1-methyl-ethyl)-2-oxo-6,7-dihydrobenzo[a]quinolizine-3-carboxamide] | 2.2 |
| CCC1Cc2cc(OCCCOC)c(OC)cc2-c2cc(=O)c(CN3CCOCC3)cn21 (stereo not shown) [Example 26, 6-ethyl-10-methoxy-9-(3-methoxypropoxy)-3-(morpholinomethyl)-6,7-dihydrobenzo[a]quinolizin-2-one] | 16.2 |
| COCCCOc1cc2c(cc1OC)-c1cc(=O)c(C(=O)Nc3nnn[nH]3)cn1C(C1CCC1)C2 (stereo not shown) [Example 33, 6-cyclobutyl-10-methoxy-9-(3-methoxypropoxy)-2-oxo-N-(1H-tetrazol-5-yl)-6,7-dihydrobenzo[a]quinolizine-3-carboxamide] | 1 |
| CCC1Cc2cc(OCCCOC)c(OC)cc2-c2cc(=O)c(COC)cn21 (stereo not shown) [Example 29, 6-ethyl-10-methoxy-3-(methoxymethyl)-9-(3-methoxypropoxy)-6,7-dihydrobenzo[a]quinolizin-2-one] | 1.5 |
| CCC1Cc2cc(OCc3ccccc3)c(OC)cc2-c2cc(=O)c(C(=O)NCc3ccccc3)cn21 (stereo not shown) [Example 1, N-benzyl-9-benzyloxy-6-ethyl-10-methoxy-2-oxo-6,7-dihydrobenzo[a]quinolizine-3-carboxamide] | 26.2 |
| CCC1Cc2cc(OCc3ccccc3)c(OC)cc2-c2cc(=O)c(C(=O)NCCN(C)C)cn21 (stereo not shown) [Example 8] | 33.7 |
| CCC1Cc2cc(OCc3ccccc3)c(OC)cc2-c2cc(=O)c(C(=O)NC(C)CN(C)C)cn21 (stereo not shown) [Example 11, 9-benzyloxy-N-[2-(dimethylamino)-1-methyl-ethyl]-6-ethyl-10-methoxy-2-oxo-6,7-dihydrobenzo[a]quinolizine-3-carboxamide] | 23.9 |

| Compound | IC50 [µM] |
| --- | --- |
| COCCCOc1cc2c(cc1OC)-c1cc(=O)c(C(=O)Nc3nnn[nH]3)cn1C(C(C)C)C2 (stereo not shown) [Example 36, 6-isopropyl-10-methoxy-9-(3-methoxypropoxy)-2-oxo-N-(1H-tetrazol-5-yl)-6,7-dihydrobenzo[a]quinolizine-3-carboxamide] | 5.5 |
| COCCOc1cc(Cl)c2c(c1)CC(C(C)C)n1cc(C(=O)Nc3nnn[nH]3)c(=O)cc1-2 (stereo not shown) [Example 34, 11-chloro-6-isopropyl-9-(2-methoxyethoxy)-2-oxo-N-(1H-tetrazol-5-yl)-6,7-dihydrobenzo[a]quinolizine-3-carboxamide] | 18.3 |
| CCC1Cc2cc(OCC3CC3)c(OC)cc2-c2cc(=O)c(C(=O)NC(C)COC)cn21 (stereo not shown) [Example 19, 9-(cyclopropylmethoxy)-6-ethyl-10-methoxy-N-(2-methoxy-1-methyl-ethyl)-2-oxo-6,7-dihydrobenzo[a]quinolizine-3-carboxamide] | 8 |
| CCC1Cc2cc(OCc3ccccc3)c(OC)cc2-c2cc(=O)c(C(=O)NO)cn21 (stereo not shown) [Example 10, 9-benzyloxy-6-ethyl-10-methoxy-2-oxo-6,7-dihydrobenzo[a]quinolizine-3-carbohydroxamic Acid] | 20.3 |
| CCC1Cc2cc(OCCCOC)c(OC)cc2-c2cc(=O)c(CN(C)CC(=O)O)cn21 (stereo not shown) [Example 30, 2-[[6-ethyl-10-methoxy-9-(3-methoxypropoxy)-2-oxo-6,7-dihydrobenzo[a]quinolizin-3-yl]methyl-methyl-amino]acetic Acid] | 16.9 |
| CCCNC(=O)c1cn2c(cc1=O)-c1cc(OC)c(OCc3ccccc3)cc1CC2CC (stereo not shown) [Example 5, 9-benzyloxy-6-ethyl-10-methoxy-2-oxo-N-propyl-6,7-dihydrobenzo[a]quinolizine-3-carboxamide] | 5.6 |
| CCC1Cc2cc(OCCCOC)c(OC)cc2-c2cc(=O)c(CN3CCCC3)cn21 (stereo not shown) [Example 25, 6-ethyl-10-methoxy-9-(3-methoxypropoxy)-3-(pyrrolidin-1-ylmethyl)-6,7-dihydrobenzo[a]quinolizin-2-one] | 16.4 |
| CCC1Cc2cc(OCc3ccccc3)c(OC)cc2-c2cc(=O)c(C(=O)NC(C)CO)cn21 (stereo not shown) [Example 7, 9-benzyloxy-6-ethyl-N-(2-hydroxy-1-methyl-ethyl)-10-methoxy-2-oxo-6,7-dihydrobenzo[a]quinolizine-3-carboxamide] | 7.8 |
| CCC1Cc2cc(OCC(C)C)c(OC)cc2-c2cc(=O)c(C(=O)NC(C)COC)cn21 (stereo not shown) [Example 18, 6-ethyl-9-isobutoxy-10-methoxy-N-(2-methoxy-1-methyl-ethyl)-2-oxo-6,7-dihydrobenzo[a]quinolizine-3-carboxamide] | 4.9 |
| CCC1Cc2cc(OCc3ccccc3)c(OC)cc2-c2cc(=O)c(C(=O)NS(C)(=O)=O)cn21 (stereo not shown) [Example 4, 9-benzyloxy-6-ethyl-10-methoxy-N-methylsulfonyl-2-oxo-6,7-dihydrobenzo[a]quinolizine-3-carboxamide] | 0.92 |
| CCC1Cc2cc(OCCCOC)c(OC)cc2-c2cc(=O)c(CN3CCCCC3)cn21 (stereo not shown) [Example 24, 6-ethyl-10-methoxy-9-(3-methoxypropoxy)-3-(1-piperidylmethyl)-6,7-dihydrobenzo[a]quinolizin-2-one] | 12.6 |
| CCC1Cc2cc(OCCCOC)c(OC)cc2-c2cc(=O)c(CN(C)C)cn21 (stereo not shown) [Example 28, 3-[(dimethylamino)methyl]-6-ethyl-10-methoxy-9-(3-methoxypropoxy)-6,7-dihydrobenzo[a]quinolizin-2-one] | 3.7 |
| CCC1Cc2cc(OCCCOC)c(OC)cc2-c2cc(=O)c(C(=O)Nc3nnn[nH]3)cn21 (stereo not shown) [Example 14, 6-ethyl-10-methoxy-9-(3-methoxypropoxy)-2-oxo-N-(1H-tetrazol-5-yl)-6,7-dihydrobenzo[a]quinolizine-3-carboxamide] | 1.1 |
| CCC1Cc2cc(OCCCOC)c(OC)cc2-c2cc(=O)c(CNC)cn21 (stereo not shown) [Example 27, 6-ethyl-10-methoxy-9-(3-methoxypropoxy)-3-(methylaminomethyl)-6,7-dihydrobenzo[a]quinolizin-2-one] | 15.8 |
| CCC1Cc2cc(OCc3ccccc3)c(OC)cc2-c2cc(=O)c(C(=O)NC(C)COC)cn21 (stereo not shown) [Example 3, 9-benzyloxy-6-ethyl-10-methoxy-N-(2-methoxy-1-methyl-ethyl)-2-oxo-6,7-dihydrobenzo[a]quinolizine-3-carboxamide] | 31 |
